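Growth conditions: 96-well plates. Treatment: test compound, 48 hours, 5 concentrations. Analysis: linear interpolation between bracketing concentrations; unreached endpoints set to highest concentration. GI50: concentration for 50% inhibition of growth.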 Calls of active or inactive are those of the source. No stated cut-off is given here; in the data, active = GI50 up to about 1.1 µM and inactive = higher.
What was measured:
Assay in all cases: NCI-60 cell line screen, 48 h
T47D = test system: T47D
HCT-116 = test system: HCT-116
Hs-578T = test system: Hs-578T
SF-539 = test system: SF-539
NCI-H23 = test system: NCI-H23
OVCAR-5 = test system: OVCAR-5
NCI/ADR-RES = test system: NCI/ADR-RES
PC-3 = test system: PC-3
NCI-H460 = test system: NCI-H460
CCRF-CEM = test system: CCRF-CEM
UACC-62 = test system: UACC-62
Malme-3M = test system: Malme-3M
U-251 = test system: U-251
OVCAR-4 = test system: OVCAR-4
OVCAR-3 = test system: OVCAR-3
EKVX = test system: EKVX
SF-295 = test system: SF-295
NCI-H226 = test system: NCI-H226
COLO 205 = test system: COLO 205
SW-620 = test system: SW-620
OVCAR-8 = test system: OVCAR-8
BT-549 = test system: BT-549
A549 = test system: A549
MDA-MB-435 = test system: MDA-MB-435
SK-MEL-5 = test system: SK-MEL-5
LOX IMVI = test system: LOX IMVI
HOP-92 = test system: HOP-92
RPMI-8226 = test system: RPMI-8226
SF-268 = test system: SF-268
MCF7 = test system: MCF7
SR = test system: SR
HL-60 = test system: HL-60
SK-OV-3 = test system: SK-OV-3
786-0 = test system: 786-0
SNB-19 = test system: SNB-19
HCT-15 = test system: HCT-15
UACC-257 = test system: UACC-257
KM12 = test system: KM12
UO-31 = test system: UO-31
A498 = test system: A498
CAKI-1 = test system: CAKI-1
MOLT-4 = test system: MOLT-4
DU-145 = test system: DU-145
SK-MEL-2 = test system: SK-MEL-2
K562 = test system: K562
ACHN = test system: ACHN
SK-MEL-28 = test system: SK-MEL-28
RXF 393 = test system: RXF 393
SNB-75 = test system: SNB-75
MDA-MB-231 = test system: MDA-MB-231
M14 = test system: M14
IGROV-1 = test system: IGROV-1
HCC 2998 = test system: HCC 2998
HT-29 = test system: HT-29
HOP-62 = test system: HOP-62
TK-10 = test system: TK-10
NCI-H522 = test system: NCI-H522
SN12C = test system: SN12C

Structure (SMILES): COc1cc2c(cc1OC)OC(c1c(OC)ccc(OC)c1O)CC2 (stereo not drawn)
- GI50 (T47D): 65.8 µM (inactive)
- GI50 (HCT-116): > 100 µM (inactive)
- GI50 (Hs-578T): 53.8 µM (inactive)
- GI50 (SF-539): 73.6 µM (inactive)
- GI50 (NCI-H23): > 100 µM (inactive)
- GI50 (OVCAR-5): > 100 µM (inactive)
- GI50 (NCI/ADR-RES): > 100 µM (inactive)
- GI50 (PC-3): > 100 µM (inactive)
- GI50 (NCI-H460): > 100 µM (inactive)
- GI50 (CCRF-CEM): 22.9 µM (inactive)
- GI50 (UACC-62): > 100 µM (inactive)
- GI50 (Malme-3M): 74 µM (inactive)
- GI50 (U-251): > 100 µM (inactive)
- GI50 (OVCAR-4): 87.3 µM (inactive)
- GI50 (OVCAR-3): 35.1 µM (inactive)
- GI50 (EKVX): > 100 µM (inactive)
- GI50 (SF-295): 71.3 µM (inactive)
- GI50 (NCI-H226): > 100 µM (inactive)
- GI50 (COLO 205): 91.4 µM (inactive)
- GI50 (SW-620): > 100 µM (inactive)
- GI50 (OVCAR-8): > 100 µM (inactive)
- GI50 (BT-549): > 100 µM (inactive)
- GI50 (A549): > 100 µM (inactive)
- GI50 (MDA-MB-435): > 100 µM (inactive)
- GI50 (SK-MEL-5): 76.2 µM (inactive)
- GI50 (LOX IMVI): > 100 µM (inactive)
- GI50 (HOP-92): > 100 µM (inactive)
- GI50 (RPMI-8226): 37.2 µM (inactive)
- GI50 (SF-268): > 100 µM (inactive)
- GI50 (MCF7): 78.2 µM (inactive)
- GI50 (SR): > 100 µM (inactive)
- GI50 (HL-60): 20.4 µM (inactive)
- GI50 (SK-OV-3): > 100 µM (inactive)
- GI50 (786-0): > 100 µM (inactive)
- GI50 (SNB-19): > 100 µM (inactive)
- GI50 (HCT-15): > 100 µM
- GI50 (UACC-257): > 100 µM (inactive)
- GI50 (KM12): > 100 µM (inactive)
- GI50 (UO-31): > 100 µM (inactive)
- GI50 (A498): > 100 µM (inactive)
- GI50 (CAKI-1): > 100 µM (inactive)
- GI50 (MOLT-4): 71.9 µM (inactive)
- GI50 (DU-145): > 100 µM (inactive)
- GI50 (SK-MEL-2): > 100 µM (inactive)
- GI50 (K562): > 100 µM (inactive)
- GI50 (ACHN): 68.7 µM (inactive)
- GI50 (SK-MEL-28): > 100 µM (inactive)
- GI50 (RXF 393): > 100 µM (inactive)
- GI50 (SNB-75): > 100 µM (inactive)
- GI50 (MDA-MB-231): > 100 µM (inactive)
- GI50 (M14): > 100 µM (inactive)
- GI50 (IGROV-1): > 100 µM (inactive)
- GI50 (HCC 2998): > 100 µM (inactive)
- GI50 (HT-29): > 100 µM (inactive)
- GI50 (HOP-62): > 100 µM (inactive)
- GI50 (TK-10): 95.3 µM (inactive)

Structure (SMILES): CC1=NN(c2nc(N)nc(COCc3nc(N)nc(N4N=C(C)CC4(C)C)n3)n2)C(C)(C)C1
- GI50 (T47D): > 100 µM (inactive)
- GI50 (HCT-116): > 100 µM (inactive)
- GI50 (Hs-578T): > 100 µM (inactive)
- GI50 (SF-539): > 100 µM (inactive)
- GI50 (NCI-H23): > 100 µM (inactive)
- GI50 (OVCAR-5): > 100 µM (inactive)
- GI50 (NCI/ADR-RES): > 100 µM (inactive)
- GI50 (PC-3): > 100 µM (inactive)
- GI50 (NCI-H460): > 100 µM (inactive)
- GI50 (CCRF-CEM): > 100 µM (inactive)
- GI50 (UACC-62): > 100 µM (inactive)
- GI50 (NCI-H522): > 100 µM (inactive)
- GI50 (U-251): > 100 µM (inactive)
- GI50 (OVCAR-4): > 100 µM (inactive)
- GI50 (OVCAR-3): > 100 µM (inactive)
- GI50 (EKVX): > 100 µM (inactive)
- GI50 (SF-295): > 100 µM (inactive)
- GI50 (NCI-H226): > 100 µM (inactive)
- GI50 (COLO 205): > 100 µM (inactive)
- GI50 (SW-620): > 100 µM (inactive)
- GI50 (OVCAR-8): > 100 µM (inactive)
- GI50 (BT-549): > 100 µM (inactive)
- GI50 (A549): > 100 µM (inactive)
- GI50 (MDA-MB-435): > 100 µM (inactive)
- GI50 (SK-MEL-5): > 100 µM (inactive)
- GI50 (LOX IMVI): > 100 µM (inactive)
- GI50 (HOP-92): > 100 µM (inactive)
- GI50 (RPMI-8226): > 100 µM (inactive)
- GI50 (SF-268): > 100 µM (inactive)
- GI50 (MCF7): > 100 µM (inactive)
- GI50 (SR): > 100 µM (inactive)
- GI50 (HL-60): > 100 µM (inactive)
- GI50 (SK-OV-3): > 100 µM (inactive)
- GI50 (786-0): > 100 µM (inactive)
- GI50 (SNB-19): > 100 µM (inactive)
- GI50 (HCT-15): > 100 µM
- GI50 (UACC-257): > 100 µM (inactive)
- GI50 (KM12): > 100 µM (inactive)
- GI50 (SN12C): > 100 µM (inactive)
- GI50 (UO-31): > 100 µM (inactive)
- GI50 (A498): > 100 µM (inactive)
- GI50 (CAKI-1): > 100 µM (inactive)
- GI50 (MOLT-4): > 100 µM (inactive)
- GI50 (DU-145): > 100 µM (inactive)
- GI50 (SK-MEL-2): > 100 µM (inactive)
- GI50 (K562): > 100 µM (inactive)
- GI50 (ACHN): > 100 µM (inactive)
- GI50 (SK-MEL-28): > 100 µM (inactive)
- GI50 (RXF 393): > 100 µM (inactive)
- GI50 (SNB-75): > 100 µM (inactive)
- GI50 (MDA-MB-231): > 100 µM (inactive)
- GI50 (M14): > 100 µM (inactive)
- GI50 (IGROV-1): > 100 µM (inactive)
- GI50 (HCC 2998): > 100 µM (inactive)
- GI50 (HT-29): > 100 µM (inactive)
- GI50 (HOP-62): > 100 µM (inactive)
- GI50 (TK-10): > 100 µM (inactive)

Structure (SMILES): COc1cc(OCc2nc3cc(C(F)(F)F)ccc3nc2-c2ccccc2)cc(OC)c1OC
- GI50 (T47D): 11.9 µM (inactive)
- GI50 (HCT-116): 94 µM (inactive)
- GI50 (Hs-578T): 55.6 µM (inactive)
- GI50 (SF-539): 45.8 µM (inactive)
- GI50 (NCI-H23): 87.3 µM (inactive)
- GI50 (OVCAR-5): > 100 µM (inactive)
- GI50 (NCI/ADR-RES): 61.2 µM (inactive)
- GI50 (PC-3): 98.9 µM (inactive)
- GI50 (NCI-H460): > 100 µM (inactive)
- GI50 (CCRF-CEM): > 100 µM (inactive)
- GI50 (UACC-62): 61.4 µM (inactive)
- GI50 (Malme-3M): > 100 µM (inactive)
- GI50 (U-251): 39.6 µM (inactive)
- GI50 (OVCAR-4): 95.3 µM (inactive)
- GI50 (OVCAR-3): > 100 µM (inactive)
- GI50 (EKVX): 91.4 µM (inactive)
- GI50 (SF-295): 47.3 µM (inactive)
- GI50 (NCI-H226): > 100 µM (inactive)
- GI50 (COLO 205): > 100 µM (inactive)
- GI50 (SW-620): > 100 µM (inactive)
- GI50 (OVCAR-8): 64.3 µM (inactive)
- GI50 (BT-549): > 100 µM (inactive)
- GI50 (A549): 36.9 µM (inactive)
- GI50 (MDA-MB-435): > 100 µM (inactive)
- GI50 (SK-MEL-5): 17.1 µM (inactive)
- GI50 (LOX IMVI): > 100 µM (inactive)
- GI50 (HOP-92): > 100 µM (inactive)
- GI50 (RPMI-8226): 15.5 µM (inactive)
- GI50 (SF-268): > 100 µM (inactive)
- GI50 (MCF7): 56.4 µM (inactive)
- GI50 (SR): 81.5 µM (inactive)
- GI50 (HL-60): > 100 µM (inactive)
- GI50 (SK-OV-3): > 100 µM (inactive)
- GI50 (786-0): 96.2 µM (inactive)
- GI50 (SNB-19): 94.6 µM (inactive)
- GI50 (HCT-15): > 100 µM
- GI50 (UACC-257): > 100 µM (inactive)
- GI50 (KM12): > 100 µM (inactive)
- GI50 (UO-31): > 100 µM (inactive)
- GI50 (A498): > 100 µM (inactive)
- GI50 (CAKI-1): > 100 µM (inactive)
- GI50 (MOLT-4): 8.75 µM (inactive)
- GI50 (DU-145): 86.9 µM (inactive)
- GI50 (SK-MEL-2): > 100 µM (inactive)
- GI50 (K562): 61.9 µM (inactive)
- GI50 (ACHN): > 100 µM (inactive)
- GI50 (SK-MEL-28): 65.3 µM (inactive)
- GI50 (RXF 393): 19.5 µM (inactive)
- GI50 (SNB-75): 98.9 µM (inactive)
- GI50 (MDA-MB-231): > 100 µM (inactive)
- GI50 (M14): 45.4 µM (inactive)
- GI50 (IGROV-1): > 100 µM (inactive)
- GI50 (HCC 2998): > 100 µM (inactive)
- GI50 (HT-29): > 100 µM (inactive)
- GI50 (TK-10): 70.3 µM (inactive)
